pIC50: −log10 of the molar value. Where two headings read alike, the source gives them in different places. Where a SMILES comes first, the peptide text is derived from it. [ ]: non-standard residue; d: D form. The star is where a group is joined. X1 = O=C(O)c1cc(NC(=S)*)ccc1-c1c2ccc(=O)cc-2oc2cc(O)ccc12; Acetyl(2-(piperazin-1-yl)) = O=C(CN1CCNCC1)*; 2Nal = N[C@@H](Cc1ccc2ccccc2c1)C(=O)O; Bta = N[C@@H](Cc1csc2ccccc12)C(=O)O; Benzyl(3,4-Cl2) = Clc1ccc(C*)cc1Cl; Pip = O=C(O)[C@@H]1CCCCN1; CH2PO3H2 = O=P(O)(O)C*; Inp = O=C(O)C1CCNCC1; Ahx = NCCCCCC(=O)O; Mpa = O=C(O)CCS

Broadly, the pIC50 is the negative decadic logarithm of the IC50, by convention in mol/L.

This experiment has as its target hPin1 (Protein interacting with NIMA (-kinase)) (Homo sapiens, UniProt Q13526). Put plainly: protease-coupled PPIase assay, hPin1. The experiment is classed as biochemical.
The mark [1] stands for this setting: hPin1 6 nM, substrate Ac-Ala-Ala-Ser(PO3H2)-Pro-Arg-pNA, trypsin, 35 mM HEPES pH 7.8, 6° C., read-out: Specificity of the inhibition with rotamases, Target T-1 (IC50 class).

hPin1 (Protein interacting with NIMA (-kinase)), sequence (Q13526 whole entry): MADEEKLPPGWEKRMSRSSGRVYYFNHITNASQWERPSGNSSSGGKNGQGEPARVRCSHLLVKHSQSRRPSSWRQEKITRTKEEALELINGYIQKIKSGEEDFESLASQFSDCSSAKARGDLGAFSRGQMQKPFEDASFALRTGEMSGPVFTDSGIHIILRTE

`NC(=O)[C@H](Cc1ccc2ccccc2c1)NC(=O)[C@@H]1CCCCN1C(=O)[C@H](CSCP(=O)(O)O)NC(=O)CCSCc1ccc(Cl)c(Cl)c1` [Compound 6, {3-[2-(1-Carbamoyl-2-naphthalen-2-yl-ethylcarbamoyl)-piperidin-1-yl]-2-[3-(3.4-dichloro-benzylsulfanyl)-propionylamino]-3-oxo-propylsulfanylmethyl}-phosphonic acid] ([Mpa](Benzyl(3,4-Cl2))C(CH2PO3H2)[Pip][2Nal]-NH2): the pIC50 under setting [1] is 5.00 to 6.00.
On the same count and under the same terms, as for `NC(=O)[C@H](Cc1ccc2ccccc2c1)NC(=O)[C@@H]1CCCCN1C(=O)[C@H](CSCP(=O)(O)O)NC(=O)CCCC(=O)c1ccc(Cl)cc1` [Compound 7, {3-[2-(1-Carbamoyl-2-naphthalen-2-yl-ethylcarbamoyl)-piperidin-1-yl]-2-[5-(4-chloro-phenyl)-5-oxo-pentanoylamino]-3-oxo-propylsulfanylmethyl}-phosphonicacid], the figure is greater than 6.00; as for `NC(=O)[C@H](Cc1ccc2ccccc2c1)NC(=O)[C@@H]1CCCCN1C(=O)[C@H](CSCP(=O)(O)O)NC(=O)CCCCc1ccccc1` [Compound 8, [3-[2-(1-Carbamoyl-2-naphthalen-2-yl-ethylcarbamoyl)-piperidin-1-yl]-3-oxo-2-(5-phenyl-pentanoylamino)-propylsulfanylmethyl]-phosphonicacid], greater than 6.00.
Turning to `NC(=O)[C@H](Cc1ccc2ccccc2c1)NC(=O)[C@@H]1CCCCN1C(=O)[C@H](CSCP(=O)(O)O)NC(=O)[C@H](Cc1csc2ccccc12)NC(=O)CCCCCNC(=S)Nc1ccc(-c2c3ccc(=O)cc-3oc3cc(O)ccc23)c(C(=O)O)c1` [Compound 9] ({X1-Ahx}-[Bta]C(CH2PO3H2)[Pip][2Nal]-NH2), the pIC50 was greater than 6.00.
For the compound `NC(=O)[C@H](Cc1ccc2ccccc2c1)NC(=O)[C@@H]1CCCCN1C(=O)[C@H](CSCP(=O)(O)O)NC(=O)CC1NC(=O)NC1=O` (stereo partly drawn) [Compound 10, {3-[2-(1-Carbamoyl-2-naphthalen-2-yl-ethylcarbamoyl)-piperidin-1-yl]-2-[2-(2.5-dioxo-imidazolidin-4-yl)-acetylamino]-3-oxo-propylsulfanylmethyl}-phosphonicacid], the pIC50 is greater than 6.00.
Take `NC(=O)[C@H](Cc1ccc2ccccc2c1)NC(=O)[C@@H]1CCCCN1C(=O)[C@H](CSCP(=O)(O)O)NC(=O)CC1CCCCC1` [Compound 11, [3-[2-(1-Carbamoyl-2-naphthalen-2-yl-ethylcarbamoyl)-piperidin-1-yl]-2-(2-cyclohexyl-acetylamino)-3-oxo-propylsulfanylmethyl]-phosphonic acid]: the pIC50 under setting [1] is 5.00 to 6.00.
In the case of `NC(=O)[C@H](Cc1ccc2ccccc2c1)NC(=O)[C@@H]1CCCCN1C(=O)[C@H](CSCP(=O)(O)O)NC(=O)C1CSC(=O)N1` (stereo partly drawn) [Compound 12, {3-[2-(1-Carbamoyl-2-naphthalen-2-yl-ethylcarbamoyl)-piperidin-1-yl]-3-oxo-2-[(2-oxo-thiazolidine-4-carbonyl)-amino]-propylsulfanylmethyl}-phosphonicacid], the pIC50 is greater than 6.00.
`NC(=O)[C@H](Cc1ccc2ccccc2c1)NC(=O)[C@@H]1CCCCN1C(=O)[C@H](CSCP(=O)(O)O)NC(=O)C1CSC(=O)N1C(=O)C1CSC(=O)N1` (stereo partly drawn) [Compound 13, (3-[2-(1-Carbamoyl-2-naphthalen-2-yl-ethylcarbamoyl)-piperidin-1-yl]-3-oxo-2-{[2-oxo-3-(2-oxo-thiazolidine-4-carbonyl)-thiazolidine-4-carbonyl]-amino}-propylsulfanylmethyl)-phosphonicacid] gave a pIC50 greater than 6.00.
Turning to `NC(=O)[C@H](Cc1ccc2ccccc2c1)NC(=O)[C@@H]1CCCCN1C(=O)[C@H](CSCP(=O)(O)O)NC(=O)c1cccc(Oc2ccccc2)c1` [Compound 14, [3-[2-(1-Carbamoyl-2-naphthalen-2-yl-ethylcarbamoyl)-piperidin-1-yl]-3-oxo-2-(3-phenoxy-benzoylamino)-propylsulfanylmethyl]-phosphonicacid], the pIC50 under setting [1] is greater than 6.00.
Same read-out and setting: as for `NC(=O)[C@H](Cc1ccc2ccccc2c1)NC(=O)[C@@H]1CCCCN1C(=O)[C@H](CSCP(=O)(O)O)NC(=O)C1CCc2ccccc2C1` (stereo partly drawn) [Compound 15, {3-[2-(1-Carbamoyl-2-naphthalen-2-yl-ethylcarbamoyl)-piperidin-1-yl]-3-oxo-2-[(1.2.3.4-tetrahydro-naphthalene-2-carbonyl)-amino]-propylsulfanylmethyl}-phosphonicacid], the figure is 5.00 to 6.00.
Same read-out and setting: the result for `NC(=O)[C@H](Cc1ccc2ccccc2c1)NC(=O)[C@@H]1CCCCN1C(=O)[C@H](CSCP(=O)(O)O)NC(=O)CCc1cccs1` [Compound 16, [3-[2-(1-Carbamoyl-2-naphthalen-2-yl-ethylcarbamoyl)-piperidin-1-yl]-3-oxo-2-(3-thiophen-2-yl-propionylamino)-propylsulfanylmethyl]-phosphonicacid] reads 5.00 to 6.00; that for `NC(=O)[C@H](Cc1ccc2ccccc2c1)NC(=O)[C@@H]1CCCCN1C(=O)[C@H](CSCP(=O)(O)O)NC(=O)OCC1c2ccccc2-c2ccccc21` [Compound 17], 5.00 to 6.00.
As for `NC(=O)[C@H](Cc1ccc2ccccc2c1)NC(=O)[C@@H]1CCCCN1C(=O)[C@H](CSCP(=O)(O)O)NC(=O)[C@H](Cc1csc2ccccc12)NC(=O)C1CCNCC1` [Compound 18, {2-{3-Benzo[b]thiophen-3-yl-2-[(piperidine-4-carbonyl)-amino]-propionylamino}-3-[2-(1-carbamoyl-2-naphthalen-2-yl-ethylcarbamoyl)-piperidin-1-yl]-3-oxo-propylsulfanylmethyl}-phosphonic acid] (H-[Inp][Bta]C(CH2PO3H2)[Pip][2Nal]-NH2), the pIC50 was greater than 6.00.
Compound `NC(=O)[C@H](Cc1ccc2ccccc2c1)NC(=O)[C@@H]1CCCCN1C(=O)[C@H](CSCP(=O)(O)O)NC(=O)[C@H](Cc1csc2ccccc12)NC(=O)CN1CCNCC1` [Compound 19, {2-[3-Benzo[b]thiophen-3-yl-2-(2-piperazin-1-yl-acetylamino)-propionylamino]-3-[2-(1-carbamoyl-2-naphthalen-2-yl-ethylcarbamoyl)-piperidin-1-yl]-3-oxo-propylsulfanylmethyl}-phosphonic acid] ({Acetyl(2-(piperazin-1-yl))}-[Bta]C(CH2PO3H2)[Pip][2Nal]-NH2) showed a pIC50 greater than 6.00.
As to `NC(=O)[C@H](Cc1ccc2ccccc2c1)NC(=O)[C@@H]1CCCCN1C(=O)[C@H](CSCP(=O)(O)O)NC(=O)c1ccccc1` [Compound 20, {2-Benzoylamino-3-[2-(1-carbamoyl-2-naphthalen-2-yl-ethylcarbamoyl)-piperidin-1-yl]-3-oxo-propylsulfanylmethyl}-phosphonic acid], the pIC50 under setting [1] was greater than 6.00.
Regarding `NC(=O)[C@H](Cc1ccc2ccccc2c1)NC(=O)[C@@H]1CCCCN1C(=O)[C@H](CSCP(=O)(O)O)NC(=O)Cc1ccccc1` [Compound 21, {3-[2-(1-Carbamoyl-2-naphthalen-2-yl-ethylcarbamoyl)-piperidin-1-yl]-3-oxo-2-phenylacetylamino-propylsulfanylmethyl}-phosphonicacid], the pIC50 under setting [1] is greater than 6.00.
On the same count and under the same terms, as for `NC(=O)[C@H](Cc1ccc2ccccc2c1)NC(=O)[C@@H]1CCCCN1C(=O)[C@H](CSCP(=O)(O)O)NC(=O)CCc1ccccc1` [Compound 22, [3-[2-(1-Carbamoyl-2-naphthalen-2-yl-ethylcarbamoyl)-piperidin-1-yl]-3-oxo-2-(3-phenyl-propionylamino)-propylsulfanylmethyl]-phosphonicacid], the figure is greater than 6.00; as for `NC(=O)[C@H](Cc1ccc2ccccc2c1)NC(=O)[C@@H]1CCCCN1C(=O)[C@H](CSCP(=O)(O)O)NC(=O)CCCc1ccccc1` [Compound 23, [3-[2-(1-Carbamoyl-2-naphthalen-2-yl-ethylcarbamoyl)-piperidin-1-yl]-3-oxo-2-(4-phenyl-butyrylamino)-propylsulfanylmethyl]-phosphonicacid], greater than 6.00; as for `NC(=O)[C@H](Cc1ccc2ccccc2c1)NC(=O)[C@@H]1CCCCN1C(=O)[C@H](CSCP(=O)(O)O)NC(=O)Cc1ccc(-c2ccccc2)cc1` [Compound 24, {2-(2-Biphenyl-4-yl-acetylamino)-3-[2-(1-carbamoyl-2-naphthalen-2-yl-ethylcarbamoyl)-piperidin-1-yl]-3-oxo-propylsulfanylmethyl}-phosphonic acid], greater than 6.00.
On the same count and under the same terms, the result for `CC(=O)N[C@@H](Cc1csc2ccccc12)C(=O)N[C@@H](CSCP(=O)(O)O)CN1CCCC[C@H]1C(=O)N[C@@H](Cc1ccc2ccccc2c1)C(N)=O` [Compound 25, {2-(2-Acetylamino-3-benzo[b]thiophen-3-yl-propionylamino)-3-[2-(1-carbamoyl-2-naphthalen-2-yl-ethylcarbamoyl)-piperidin-1-yl]-propylsulfanylmethyl}-phosphonicacid] reads greater than 6.00.
On the same count and under the same terms, as for `CC(=O)N[C@@H](Cc1csc2ccccc12)C(=O)N[C@@H](CSCP(=O)(O)O)C(=O)N(C)N(C)C(=O)N[C@@H](Cc1ccc2ccccc2c1)C(N)=O` [Compound 26, Ac-Bta-Cys(CH2—P(O)(OH)2)-NMeazaAla-2Nal-NH2], the figure is greater than 6.00; as for `CC(=O)N[C@@H](Cc1csc2ccccc12)C(=O)N[C@@H](CSCP(=O)(O)O)C(=O)N(C)NC(=O)N[C@@H](Cc1ccc2ccccc2c1)C(N)=O` [Compound 27, Ac-Bta-Cys(CH2—P(O)(OH)2)-NMeazaGly-2Nal-NH2], greater than 6.00.
Turning to `NC(=O)[C@H](Cc1ccc2ccccc2c1)NC(=O)[C@@H]1CCCCN1C(=O)CSCP(=O)(O)O` [Compound 28, {2-[2-(1-Carbamoyl-2-naphthalen-2-yl-ethylcarbamoyl)-piperidin-1-yl]-2-oxo-ethylsulfanylmethyl}-phosphonic acid], the pIC50 under setting [1] was greater than 6.00.
Same read-out and setting: the result for `NC(=O)[C@H](Cc1ccc2ccccc2c1)NC(=O)[C@@H]1CCCCN1C(=O)CCSCP(=O)(O)O` [Compound 29, {3-[2-(1-Carbamoyl-2-naphthalen-2-yl-ethylcarbamoyl)-piperidin-1-yl]-3-oxo-propylsulfanylmethyl}-phosphonic acid] reads greater than 6.00.

Values taken from US20080194524A1, “Compounds For the Inhibition of Undesired Cell Proliferation and Use Thereof” (JERINI AG, priority 2003, published 2008).
